Test results published in ChEMBL document CHEMBL5579820, “New insights into butyrylcholinesterase: Pharmaceutical applications, selective inhibitors and multitarget-directed ligands” (Eur J Med Chem, 2024).
Where “and” joins values, the source holds several entries; their conditions need not be identical. Equal entries are not always repeated.

Legend:
Cholinesterase [1] = target: T1, Cholinesterase (Homo sapiens, UniProt P06276); assay: Inhibition of BChE (unknown origin)
Acetylcholinesterase [2] = target: T2, Acetylcholinesterase (Homo sapiens, UniProt P22303); assay: Inhibition of human AChE using acetylthiocholine iodide as substrate after 15 mins by Ellman's method
Cholinesterase [3] = target: T3, Cholinesterase (Equus caballus, UniProt P81908); assay: Inhibition of equine serum BuChE by Ellman's method
Acetylcholinesterase [4] = target: T4, Acetylcholinesterase (Electrophorus electricus, UniProt O42275); assay: Inhibition of electric eel AChE using acetylthiocholine iodide as substrate after 60 mins by Ellman's method
[5] = target: Cholinesterases; ACHE & BCHE (Homo sapiens) (UniProt P06276+P22303); assay: Selectivity index, ratio of IC50 for inhibition of human AChE to IC50 for inhibition of human BChE; assay type: protein assay
Cholinesterase [6] = target: T1, Cholinesterase
Cholinesterase [7] = target: T3, Cholinesterase; assay: Inhibition of equine BuChE
[8] = Inhibition of equine serum BChE using butyrylthiocholine iodide as substrate by Ellman's method; parameters: species or system Equus caballus
Acetylcholinesterase [9] = target: T4, Acetylcholinesterase; assay: Inhibition of Electric eel AChE using […] as substrate by spectrophotometry based Ellman's method
Acetylcholinesterase [10] = target: T2, Acetylcholinesterase; assay: Inhibition of AChE (unknown origin)
[11] = target: T5, Protein deacetylase HDAC6 (Homo sapiens, UniProt Q9UBN7); assay: Inhibition of HDAC6 (unknown origin)
T5 sequence (Q9UBN7 whole entry): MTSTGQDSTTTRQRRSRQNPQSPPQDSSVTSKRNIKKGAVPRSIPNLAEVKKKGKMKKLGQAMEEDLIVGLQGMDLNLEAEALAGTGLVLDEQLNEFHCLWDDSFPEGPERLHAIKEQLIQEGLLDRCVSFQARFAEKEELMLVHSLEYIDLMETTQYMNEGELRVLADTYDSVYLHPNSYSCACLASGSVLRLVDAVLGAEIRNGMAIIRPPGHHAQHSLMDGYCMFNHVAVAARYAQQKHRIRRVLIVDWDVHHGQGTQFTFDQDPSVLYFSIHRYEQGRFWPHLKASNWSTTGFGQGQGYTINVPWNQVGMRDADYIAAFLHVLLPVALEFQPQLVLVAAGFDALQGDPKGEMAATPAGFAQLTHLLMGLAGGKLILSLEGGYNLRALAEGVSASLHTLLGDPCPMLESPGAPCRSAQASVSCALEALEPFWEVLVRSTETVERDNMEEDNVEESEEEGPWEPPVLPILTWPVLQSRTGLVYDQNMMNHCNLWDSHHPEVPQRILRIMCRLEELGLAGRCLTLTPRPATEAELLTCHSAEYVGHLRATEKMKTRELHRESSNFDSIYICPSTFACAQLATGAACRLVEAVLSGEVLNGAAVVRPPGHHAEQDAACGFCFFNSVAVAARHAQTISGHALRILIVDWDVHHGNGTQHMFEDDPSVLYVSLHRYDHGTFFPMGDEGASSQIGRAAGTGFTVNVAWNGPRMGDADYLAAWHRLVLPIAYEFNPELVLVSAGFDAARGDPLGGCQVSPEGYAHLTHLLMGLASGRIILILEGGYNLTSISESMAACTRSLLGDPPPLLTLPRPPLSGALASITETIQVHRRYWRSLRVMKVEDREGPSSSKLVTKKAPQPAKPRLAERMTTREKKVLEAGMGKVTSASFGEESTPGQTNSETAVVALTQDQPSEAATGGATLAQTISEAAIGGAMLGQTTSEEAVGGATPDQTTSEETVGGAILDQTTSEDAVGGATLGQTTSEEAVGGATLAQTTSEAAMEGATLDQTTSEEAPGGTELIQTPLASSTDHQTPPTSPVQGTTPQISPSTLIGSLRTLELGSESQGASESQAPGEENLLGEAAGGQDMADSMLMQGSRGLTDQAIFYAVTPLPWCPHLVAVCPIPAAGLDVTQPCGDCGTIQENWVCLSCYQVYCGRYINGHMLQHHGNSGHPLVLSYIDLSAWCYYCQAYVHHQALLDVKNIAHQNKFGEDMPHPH

Cholinesterase [12] = target: T1, Cholinesterase; assay: Inhibition of human BChE using butyrylthiocholine iodide as substrate preincubated for 15 min followed by substrate addition measured after 40 min by Ellman's method
Acetylcholinesterase [13] = target: T2, Acetylcholinesterase; assay: Inhibition of human AChE by Ellman's method
[14] = target: T6, Amine oxidase [flavin-containing] A (Homo sapiens, UniProt P21397); assay: Inhibition of human recombinant MAO-A using kynuramine as substrate by incubated for 75 mins by spectrophotometric analysis
T6 sequence (P21397 whole entry): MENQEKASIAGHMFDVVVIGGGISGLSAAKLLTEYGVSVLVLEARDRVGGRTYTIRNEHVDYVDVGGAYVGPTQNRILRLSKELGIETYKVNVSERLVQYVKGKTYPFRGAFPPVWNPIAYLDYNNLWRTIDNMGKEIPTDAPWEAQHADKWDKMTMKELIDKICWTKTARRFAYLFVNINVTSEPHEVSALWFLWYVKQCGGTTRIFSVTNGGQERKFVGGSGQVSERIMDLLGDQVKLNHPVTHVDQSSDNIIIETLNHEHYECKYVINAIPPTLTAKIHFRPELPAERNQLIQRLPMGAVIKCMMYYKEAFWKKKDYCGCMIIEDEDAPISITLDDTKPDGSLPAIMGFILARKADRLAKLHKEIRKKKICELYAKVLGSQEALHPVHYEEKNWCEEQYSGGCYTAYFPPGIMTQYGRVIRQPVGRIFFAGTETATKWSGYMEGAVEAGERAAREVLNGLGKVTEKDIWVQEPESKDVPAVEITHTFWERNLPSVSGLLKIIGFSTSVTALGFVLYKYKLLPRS

[15] = target: T7, Amine oxidase [flavin-containing] B (Homo sapiens, UniProt P27338); assay: Inhibition of human recombinant MAO-B using benzylamine as substrate by fluorescence based analysis
T7 sequence (P27338 whole entry): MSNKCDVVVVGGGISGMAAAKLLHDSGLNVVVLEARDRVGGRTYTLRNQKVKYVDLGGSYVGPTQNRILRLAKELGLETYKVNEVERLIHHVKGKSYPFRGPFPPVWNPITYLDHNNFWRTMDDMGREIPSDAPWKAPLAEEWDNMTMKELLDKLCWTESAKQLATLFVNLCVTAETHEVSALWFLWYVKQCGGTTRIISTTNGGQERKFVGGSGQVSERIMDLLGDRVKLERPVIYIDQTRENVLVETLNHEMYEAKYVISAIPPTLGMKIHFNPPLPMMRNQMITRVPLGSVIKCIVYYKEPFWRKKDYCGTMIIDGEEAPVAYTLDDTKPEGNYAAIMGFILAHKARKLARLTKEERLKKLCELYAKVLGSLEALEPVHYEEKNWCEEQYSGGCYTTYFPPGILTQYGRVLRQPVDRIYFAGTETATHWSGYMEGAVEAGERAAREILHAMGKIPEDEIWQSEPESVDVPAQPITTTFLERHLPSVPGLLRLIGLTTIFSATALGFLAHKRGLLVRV

[16] = Inhibition of equine serum BChE using butyrylthiocholine iodide as substrate by measured after 30 mins Ellman's method; assay type: cell-free, Equus caballus
[17] = Selectivity index, ratio of IC50 for human AChE using acetylthiocholine iodide as substrate to IC50 for equine serum BuChE using butyrylthiocholine iodide as substrate
[18] = target: Acetylcholinesterase (Electrophorus electricus) (UniProt O42275); assay: Inhibition of electric eel AChE using acetylthiocholine iodide as substrate at 50 uM by Ellman's method relative to control
Acetylcholinesterase [19] = target: T2, Acetylcholinesterase
Acetylcholinesterase [20] = target: T2, Acetylcholinesterase; assay: Inhibition of AChE (unknown origin) using acetylthiocholine iodide as substrate preincubated for 15 min followed by substrate addition and measured after 60 min by Ellman's method
Cholinesterase [21] = target: T1, Cholinesterase; assay: Inhibition of human BChE using butyrylthiocholineiodide as substrate measured for 30 mins by Ellman's method
Acetylcholinesterase [22] = target: T2, Acetylcholinesterase; assay: Inhibition of human AChE at 15 uM relative to control
[23] = Selectivity index, ratio of IC50 for electric eel AChE to IC50 for equine serum BuChE
Acetylcholinesterase [24] = target: T4, Acetylcholinesterase; assay: Inhibition of electric eel AChE

T2 sequence (P22303 whole entry): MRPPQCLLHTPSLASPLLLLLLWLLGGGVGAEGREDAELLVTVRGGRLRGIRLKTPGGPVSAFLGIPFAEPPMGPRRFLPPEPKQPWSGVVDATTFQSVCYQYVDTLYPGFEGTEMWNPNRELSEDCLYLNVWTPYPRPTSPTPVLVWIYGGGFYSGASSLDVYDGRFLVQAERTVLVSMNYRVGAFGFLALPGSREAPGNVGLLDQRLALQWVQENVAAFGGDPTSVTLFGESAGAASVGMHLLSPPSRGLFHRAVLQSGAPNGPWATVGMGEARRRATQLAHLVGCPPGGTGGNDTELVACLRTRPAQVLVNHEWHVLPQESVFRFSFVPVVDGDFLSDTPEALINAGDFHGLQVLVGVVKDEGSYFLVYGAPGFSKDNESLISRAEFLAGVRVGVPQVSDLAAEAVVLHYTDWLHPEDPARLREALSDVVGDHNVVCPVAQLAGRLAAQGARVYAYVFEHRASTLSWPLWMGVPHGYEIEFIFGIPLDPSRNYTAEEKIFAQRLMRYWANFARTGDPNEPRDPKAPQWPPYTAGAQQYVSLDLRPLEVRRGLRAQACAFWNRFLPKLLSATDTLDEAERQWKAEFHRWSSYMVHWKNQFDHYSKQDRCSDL
T4 sequence (O42275 whole entry): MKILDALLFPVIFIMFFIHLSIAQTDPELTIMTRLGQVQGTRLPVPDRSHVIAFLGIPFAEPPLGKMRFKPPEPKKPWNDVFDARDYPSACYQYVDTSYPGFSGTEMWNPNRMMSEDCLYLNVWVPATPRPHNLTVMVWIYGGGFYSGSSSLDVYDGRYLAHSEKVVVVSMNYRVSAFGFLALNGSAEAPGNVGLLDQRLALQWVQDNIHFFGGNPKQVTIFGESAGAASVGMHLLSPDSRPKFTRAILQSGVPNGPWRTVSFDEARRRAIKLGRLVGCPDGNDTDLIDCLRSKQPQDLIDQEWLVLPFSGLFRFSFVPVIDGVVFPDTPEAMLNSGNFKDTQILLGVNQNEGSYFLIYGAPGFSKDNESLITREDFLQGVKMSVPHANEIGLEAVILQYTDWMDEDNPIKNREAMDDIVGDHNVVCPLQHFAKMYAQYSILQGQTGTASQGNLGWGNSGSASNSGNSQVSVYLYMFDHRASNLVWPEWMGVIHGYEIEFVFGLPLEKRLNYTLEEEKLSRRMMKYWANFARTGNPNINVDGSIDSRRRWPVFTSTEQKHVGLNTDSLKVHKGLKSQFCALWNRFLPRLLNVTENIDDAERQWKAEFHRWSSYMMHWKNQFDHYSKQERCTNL
T1 sequence (P06276 whole entry): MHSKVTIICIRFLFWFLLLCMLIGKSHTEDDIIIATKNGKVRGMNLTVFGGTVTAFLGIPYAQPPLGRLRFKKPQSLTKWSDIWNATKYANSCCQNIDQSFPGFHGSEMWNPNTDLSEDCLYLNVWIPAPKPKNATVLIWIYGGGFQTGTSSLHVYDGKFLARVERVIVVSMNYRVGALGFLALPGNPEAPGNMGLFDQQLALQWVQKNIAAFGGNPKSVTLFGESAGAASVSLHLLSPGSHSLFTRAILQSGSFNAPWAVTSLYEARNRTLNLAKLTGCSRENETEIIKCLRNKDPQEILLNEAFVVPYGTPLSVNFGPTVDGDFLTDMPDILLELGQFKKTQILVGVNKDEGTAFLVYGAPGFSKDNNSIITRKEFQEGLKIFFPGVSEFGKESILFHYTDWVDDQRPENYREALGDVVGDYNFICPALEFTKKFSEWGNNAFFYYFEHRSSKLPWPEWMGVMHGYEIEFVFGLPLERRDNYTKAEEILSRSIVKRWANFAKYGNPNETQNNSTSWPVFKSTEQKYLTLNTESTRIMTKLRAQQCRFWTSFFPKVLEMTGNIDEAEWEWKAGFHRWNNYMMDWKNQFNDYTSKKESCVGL
T3 sequence (P81908 whole entry): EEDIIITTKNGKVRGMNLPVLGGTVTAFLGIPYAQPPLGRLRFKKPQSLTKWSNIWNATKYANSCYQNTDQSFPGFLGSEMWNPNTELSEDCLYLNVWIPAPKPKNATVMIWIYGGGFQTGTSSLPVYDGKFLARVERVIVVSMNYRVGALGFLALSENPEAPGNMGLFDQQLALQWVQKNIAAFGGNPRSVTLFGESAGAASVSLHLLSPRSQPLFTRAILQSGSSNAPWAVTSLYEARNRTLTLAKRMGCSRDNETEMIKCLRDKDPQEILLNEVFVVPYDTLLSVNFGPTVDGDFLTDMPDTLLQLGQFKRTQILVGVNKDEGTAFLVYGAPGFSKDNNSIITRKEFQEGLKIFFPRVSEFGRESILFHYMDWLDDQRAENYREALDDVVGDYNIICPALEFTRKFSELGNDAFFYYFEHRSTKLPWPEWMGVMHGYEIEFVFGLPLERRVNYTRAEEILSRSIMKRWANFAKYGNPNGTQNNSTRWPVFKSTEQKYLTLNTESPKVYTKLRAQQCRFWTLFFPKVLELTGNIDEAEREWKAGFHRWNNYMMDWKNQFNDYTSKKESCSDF
Sequence of Acetylcholinesterase (Electrophorus electricus) (O42275 24-633 limits assumed): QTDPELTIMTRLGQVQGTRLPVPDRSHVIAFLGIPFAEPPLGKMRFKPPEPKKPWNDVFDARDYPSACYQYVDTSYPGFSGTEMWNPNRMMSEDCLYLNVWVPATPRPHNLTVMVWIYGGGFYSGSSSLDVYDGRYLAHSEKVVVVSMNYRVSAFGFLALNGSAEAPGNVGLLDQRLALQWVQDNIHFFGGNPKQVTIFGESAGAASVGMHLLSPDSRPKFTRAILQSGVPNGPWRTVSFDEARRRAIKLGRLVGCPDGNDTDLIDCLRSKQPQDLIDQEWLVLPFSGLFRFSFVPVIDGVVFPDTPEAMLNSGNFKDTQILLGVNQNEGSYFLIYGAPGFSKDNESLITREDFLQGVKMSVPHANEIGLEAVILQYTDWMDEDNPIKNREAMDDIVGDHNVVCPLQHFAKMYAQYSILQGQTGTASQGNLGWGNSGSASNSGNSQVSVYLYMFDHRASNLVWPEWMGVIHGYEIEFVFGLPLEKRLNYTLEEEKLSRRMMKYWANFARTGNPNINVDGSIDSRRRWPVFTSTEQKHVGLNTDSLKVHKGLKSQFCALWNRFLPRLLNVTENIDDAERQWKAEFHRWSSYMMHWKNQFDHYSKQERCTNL
Sequence of Cholinesterases; ACHE & BCHE (Homo sapiens) (P06276 whole entry, looked up): as the sequence (P06276 whole entry) above
Sequence of Cholinesterases; ACHE & BCHE (Homo sapiens) (P22303 whole entry, looked up): as the sequence (P22303 whole entry) above

## COc1cc(CNCCCNc2c3c(nc4ccccc24)CCCCC3)ccc1O
Cholinesterase [1]
  IC50: 357 nM
Acetylcholinesterase [2]
  IC50: 3010 nM

## CC(C)N(Cc1ccccc1)C(=O)/C=C/C=C/c1ccc2c(c1)OCO2
Cholinesterase [3]
  IC50: 4.6 µM
Acetylcholinesterase [4]
  IC50: > 1000 µM

## CCN(CC)C(=O)c1ccc2c(c1)nc(Cc1ccc(OC(=O)N3CCC3)cc1)n2CCC(C)C
[5]
  Ratio IC50: 10
Cholinesterase [6]
  IC50: 6 nM

## CCC(=O)N(CC(=O)Nc1ccccc1C)Cc1ccccc1
Cholinesterase [3]
  IC50: 25.9 µM
Acetylcholinesterase [4]
  IC50: > 1610 µM

## O=C(NCCCCCCNc1c2c(nc3ccccc13)CCCC2)c1ccccc1O
Cholinesterase [7]
  IC50: 10 nM
Acetylcholinesterase [2]
  IC50: 20 nM

## Cc1ccc(-c2nc3cc(C(=O)Nc4ccc(O)cc4)ccc3[nH]2)cc1
[8]
  IC50: 1130 nM
Acetylcholinesterase [9]
  IC50: > 100 µM

## Cc1ccc(/C=N/NC(=O)Cn2c(=O)sc3ccccc32)s1
Cholinesterase [1]
  IC50: 1380 nM
Acetylcholinesterase [10]
  IC50: > 40 µM

## CCN(CC)Cc1ccccc1CNC(=O)c1cccc(NC(=O)c2cccc(NC(=O)CCCCCCC(=O)NO)c2)c1
[11]
  IC50: 8.9 nM
Cholinesterase [12]
  IC50: 4 nM

## Nc1c2c(nc3ccccc13)CCC2
Cholinesterase [7]
  IC50: 270 nM
Acetylcholinesterase [13]
  IC50: 4.4 µM

## COc1ccc2c(c1)CC/C(=C\c1ccc[n+](Cc3ccc(Br)cc3)c1)C2=O
Cholinesterase [3]
  IC50: 0.883 µM
Acetylcholinesterase [4]
  IC50: 17.6 µM

## CCN(CC)Cc1ccccc1CNC(=O)c1cccc(NC(=O)c2cccc(C(=O)NO)c2)c1
[11]
  IC50: 71 nM
Cholinesterase [12]
  IC50: 1.8 nM

## O=C(/C=C/c1ccccc1Cl)c1cc2ccccc2oc1=O
[14]
  IC50: > 40 µM
[15]
  IC50: 510 nM
[16]
  IC50: 7 µM

## CCc1ccccc1NC(=O)c1ccc(NS(=O)(=O)c2ccccc2)cc1
[17]
  Ratio IC50: > 1080
[18]
  inhibition: 0.52%
Cholinesterase [7]
  IC50: 46 nM and 40 nM
Acetylcholinesterase [19]
  IC50: > 50 µM

## c1ccc(-c2nn(-c3ccccc3)cc2-c2nc(-c3ccccc3)c(-c3ccccc3)n2-c2ccccc2)cc1
Acetylcholinesterase [20]
  IC50: 41.2 µM
Cholinesterase [21]
  IC50: 350 nM

## CCCCCCNC(=O)Oc1ccc2c(c1)CN1CCc3ccc(/N=N/c4ccccc4)cc3C1N2C (centres undefined)
Acetylcholinesterase [22]
  inhibition: 28.5%

## CCCCCCNC(=O)Oc1ccc2[nH]cc(CCNC(=O)c3ccccc3Nc3ccccc3)c2c1
Cholinesterase [7]
  IC50: 7 nM
[23]
  Ratio IC50: > 14300
Acetylcholinesterase [24]
  IC50: > 100 µM

## CCc1[nH]c2ccccc2c1CCN1CCC[C@H](CC)C1
Acetylcholinesterase [19]
  IC50: > 100 µM
Cholinesterase [6]
  IC50: 650 nM

## COc1cccc(NC(=O)CN(C)[C@@H](C)C(=O)c2c[nH]c3ccccc23)c1
Acetylcholinesterase [19]
  IC50: > 100 µM
Cholinesterase [6]
  IC50: 4240 nM
